# Source: paper PMC11053447, “Human ABC and SLC Transporters: The Culprit Responsible for Unspecific PSMA-617 Uptake?” (Pharmaceuticals, 2024)
# Where two headings read alike, the source gives them in different places.
# Experiments:
# human OAT2v1 = molecular target: T1, human OAT2v1 (Homo sapiens, UniProt Q9Y694); test: SLC transporter substrate assay, HEK293-OAT2v1-LV vs control HEK293-Mock-LV cells; assay type: in vitro ADME; settings: 20 min
# T1 construct: host or cells: HEK293-OAT2v1-LV
# T1 sequence (Q9Y694 1-546 isoform Q9Y694-2): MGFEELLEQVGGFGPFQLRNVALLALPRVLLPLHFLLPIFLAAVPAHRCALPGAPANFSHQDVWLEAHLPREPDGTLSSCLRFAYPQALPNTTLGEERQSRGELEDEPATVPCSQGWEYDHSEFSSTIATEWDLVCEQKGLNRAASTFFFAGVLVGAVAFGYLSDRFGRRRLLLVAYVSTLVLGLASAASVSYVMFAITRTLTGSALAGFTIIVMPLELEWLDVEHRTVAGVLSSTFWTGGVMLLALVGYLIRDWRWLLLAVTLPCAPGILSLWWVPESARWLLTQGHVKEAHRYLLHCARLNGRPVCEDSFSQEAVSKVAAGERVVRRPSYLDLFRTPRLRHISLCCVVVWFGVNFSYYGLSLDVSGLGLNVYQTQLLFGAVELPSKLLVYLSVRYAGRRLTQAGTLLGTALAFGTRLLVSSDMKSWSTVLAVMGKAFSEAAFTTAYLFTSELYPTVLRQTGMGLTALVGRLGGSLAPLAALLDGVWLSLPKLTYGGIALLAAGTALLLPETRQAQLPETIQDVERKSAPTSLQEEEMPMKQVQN
# Method: SI4. Results of transporter substrate assays (SLC)
# Human Incubation Positive control substrate/ Control Special Incubation Assay […]
# (Cell line) at 37°C [min] [h]
# OAT2v1 cGMP (1.5) / Mock-B- Poly-D-lysine
# Fold accumulation = UPTTRP
# PSMA-617 in SLC transporters.
# NA: not analyzed. Test substances were considered as substrates in case of fold accumulation values > 2 combined with inhibition values higher than 50%.
# 4.4 Organic anion transporter OAT2v1 […]
# expressed as mean (n=3) ± SD. Concentrations are nominal.
# Table S13: ([α,β-3H]Nal)Lu-PSMA-617-accumulation in OAT2v1 transporter expressing (HEK293-OAT2v1-LV) and […]
# Conditions Accumulation (pmol/mg protein)
# Compound Nominal In OAT2v1 Fold concentration Minutes transporter In control Active accumulation
# [µM] expressing cells transport
# Positive control (accumulation in cpm)
# human OAT4 = molecular target: T2, human OAT4 (Homo sapiens, UniProt Q9NSA0); test: SLC transporter substrate assay, HEK293-OAT4-LV vs control HEK293-Mock-LV cells; settings: 20 min
# T2 sequence (Q9NSA0 1-550): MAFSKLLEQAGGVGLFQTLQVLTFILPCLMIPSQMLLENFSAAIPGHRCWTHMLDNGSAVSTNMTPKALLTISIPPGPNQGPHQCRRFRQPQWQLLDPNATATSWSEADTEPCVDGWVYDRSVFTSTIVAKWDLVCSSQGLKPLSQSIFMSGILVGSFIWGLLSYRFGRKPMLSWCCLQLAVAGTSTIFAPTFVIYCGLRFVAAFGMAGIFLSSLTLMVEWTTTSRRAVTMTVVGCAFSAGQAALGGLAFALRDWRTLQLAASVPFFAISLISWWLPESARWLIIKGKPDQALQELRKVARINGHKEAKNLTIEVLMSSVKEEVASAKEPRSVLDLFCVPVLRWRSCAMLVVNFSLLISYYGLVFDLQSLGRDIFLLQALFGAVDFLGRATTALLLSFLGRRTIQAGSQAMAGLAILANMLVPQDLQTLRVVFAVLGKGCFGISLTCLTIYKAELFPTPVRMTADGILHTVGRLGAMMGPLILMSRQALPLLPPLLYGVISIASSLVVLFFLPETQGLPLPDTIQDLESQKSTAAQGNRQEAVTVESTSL
# MDR1 = MDR1 (Homo sapiens, UniProt P08183); settings: for Relative inhibition / ATP dependent transport / Relative ATP dependent transport: NMQ probe; for ATP dependent transport / Relative ATP dependent transport: mean (n=3) ± SD
# Chain of MDR1 (P08183 whole entry): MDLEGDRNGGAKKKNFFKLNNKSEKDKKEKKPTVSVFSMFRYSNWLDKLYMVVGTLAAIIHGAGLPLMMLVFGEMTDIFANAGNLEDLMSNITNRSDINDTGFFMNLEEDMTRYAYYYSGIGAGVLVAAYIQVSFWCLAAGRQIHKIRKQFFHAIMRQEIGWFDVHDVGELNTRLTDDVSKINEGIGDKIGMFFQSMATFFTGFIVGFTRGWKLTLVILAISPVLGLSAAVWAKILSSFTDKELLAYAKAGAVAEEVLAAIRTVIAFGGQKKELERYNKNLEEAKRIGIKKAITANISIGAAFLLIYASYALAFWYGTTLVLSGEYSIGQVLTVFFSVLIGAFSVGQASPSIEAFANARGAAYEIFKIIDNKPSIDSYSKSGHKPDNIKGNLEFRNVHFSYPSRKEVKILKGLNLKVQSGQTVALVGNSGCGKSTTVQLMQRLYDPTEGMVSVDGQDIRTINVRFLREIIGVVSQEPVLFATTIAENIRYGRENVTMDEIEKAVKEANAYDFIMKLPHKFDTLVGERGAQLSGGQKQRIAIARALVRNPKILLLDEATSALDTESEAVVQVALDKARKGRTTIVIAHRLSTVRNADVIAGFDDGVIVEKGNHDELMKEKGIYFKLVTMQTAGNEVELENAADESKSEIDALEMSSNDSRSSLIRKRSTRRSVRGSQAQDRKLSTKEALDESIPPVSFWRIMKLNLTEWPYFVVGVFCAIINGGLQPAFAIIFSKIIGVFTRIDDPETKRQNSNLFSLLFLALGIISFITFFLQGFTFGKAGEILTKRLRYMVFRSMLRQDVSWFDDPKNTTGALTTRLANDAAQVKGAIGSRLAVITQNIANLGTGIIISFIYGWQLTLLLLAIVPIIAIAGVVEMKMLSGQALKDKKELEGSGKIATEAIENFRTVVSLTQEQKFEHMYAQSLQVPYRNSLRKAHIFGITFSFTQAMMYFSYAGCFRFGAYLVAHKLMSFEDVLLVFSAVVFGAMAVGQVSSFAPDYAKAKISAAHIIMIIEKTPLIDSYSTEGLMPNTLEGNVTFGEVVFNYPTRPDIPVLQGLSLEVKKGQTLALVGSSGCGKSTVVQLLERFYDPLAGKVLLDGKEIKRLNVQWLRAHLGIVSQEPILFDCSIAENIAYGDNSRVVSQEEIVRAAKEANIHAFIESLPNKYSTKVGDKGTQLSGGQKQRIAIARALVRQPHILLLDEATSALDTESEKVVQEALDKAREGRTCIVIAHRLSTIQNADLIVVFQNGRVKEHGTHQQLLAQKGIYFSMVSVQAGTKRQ
# [1] = 0.03 µM nominal + Indomethacin 300 µM
# [2] = 0.30 µM nominal + Indomethacin 300 µM
# [3] = 0.03 µM nominal + Benzbromarone 300 µM
# [4] = 0.30 µM nominal + Benzbromarone 300 µM
compound,measurement,setting,value
"[3H]C(c1ccc2ccccc2c1)C([3H])(NC(=O)C1CCC(CNC(=O)CN2CCN(CC(=O)[O-])CCN(CC(=O)[O-])CCN(CC(=O)[O-])CC2)CC1)C(=O)NCCCCC(NC(=O)NC(CCC(=O)O)C(=O)O)C(=O)O.[Lu+3] (stereo not drawn) [([α,β-^3H]Nal)Lu-PSMA-617]",Accumulation in OAT2v1 transporter expressing cells,human OAT2v1; [1],0.06 ± 0.01 pmol/mg protein
same,Accumulation in control cells,human OAT2v1; [1],0.04 ± 0.00 pmol/mg protein
same,"Accumulation, active transport",human OAT2v1; [1],0.01 ± 0.01 pmol/mg protein
same,Fold accumulation,human OAT2v1; [1],1.24
same,Accumulation in OAT2v1 transporter expressing cells,"human OAT2v1; 0.03 µM nominal, no inhibitor",0.07 ± 0.01 pmol/mg protein
same,Accumulation in control cells,"human OAT2v1; 0.03 µM nominal, no inhibitor",0.04 ± 0.00 pmol/mg protein
same,"Accumulation, active transport","human OAT2v1; 0.03 µM nominal, no inhibitor",0.03 ± 0.01 pmol/mg protein
same,Fold accumulation,"human OAT2v1; 0.03 µM nominal, no inhibitor",1.77
same,Accumulation in OAT2v1 transporter expressing cells,human OAT2v1; [2],0.66 ± 0.10 pmol/mg protein
same,Accumulation in control cells,human OAT2v1; [2],0.43 ± 0.03 pmol/mg protein
same,"Accumulation, active transport",human OAT2v1; [2],0.24 ± 0.10 pmol/mg protein
same,Fold accumulation,human OAT2v1; [2],1.55
same,Accumulation in OAT2v1 transporter expressing cells,"human OAT2v1; 0.30 µM nominal, no inhibitor",0.66 ± 0.04 pmol/mg protein
same,Accumulation in control cells,"human OAT2v1; 0.30 µM nominal, no inhibitor",0.36 ± 0.03 pmol/mg protein
same,"Accumulation, active transport","human OAT2v1; 0.30 µM nominal, no inhibitor",0.30 ± 0.05 pmol/mg protein
same,Fold accumulation,"human OAT2v1; 0.30 µM nominal, no inhibitor",1.83
same,"Max. transporter-specific fold accumulation, without inhibitor",human OAT2v1; 0.3 µM,1.83
same,Uptake via transporter (OAT2v1),human OAT2v1; absence and presence of indomethacin,not taken up
same,"Max. transporter-specific fold accumulation, with inhibitor","human OAT2v1; Indomethacin, 0.3 µM",1.55
same,Accumulation in OAT4 transporter expressing cells,human OAT4; [3],0.03 ± 0.01 pmol/mg protein
same,Accumulation in control cells,human OAT4; [3],0.02 ± 0.00 pmol/mg protein
same,"Accumulation, active transport",human OAT4; [3],0.01 ± 0.01 pmol/mg protein
same,Fold accumulation,human OAT4; [3],1.47
same,Accumulation in OAT4 transporter expressing cells,"human OAT4; 0.03 µM nominal, no inhibitor",0.04 ± 0.01 pmol/mg protein
same,Accumulation in control cells,"human OAT4; 0.03 µM nominal, no inhibitor",0.03 ± 0.00 pmol/mg protein
same,"Accumulation, active transport","human OAT4; 0.03 µM nominal, no inhibitor",0.01 ± 0.01 pmol/mg protein
same,Fold accumulation,"human OAT4; 0.03 µM nominal, no inhibitor",1.22
same,Accumulation in OAT4 transporter expressing cells,human OAT4; [4],0.40 ± 0.12 pmol/mg protein
same,Accumulation in control cells,human OAT4; [4],0.49 ± 0.14 pmol/mg protein
same,"Accumulation, active transport",human OAT4; [4],-0.09 ± 0.18 pmol/mg protein
same,Fold accumulation,human OAT4; [4],0.81
same,Accumulation in OAT4 transporter expressing cells,"human OAT4; 0.30 µM nominal, no inhibitor",0.35 ± 0.11 pmol/mg protein
same,Accumulation in control cells,"human OAT4; 0.30 µM nominal, no inhibitor",0.22 ± 0.05 pmol/mg protein
same,"Accumulation, active transport","human OAT4; 0.30 µM nominal, no inhibitor",0.13 ± 0.12 pmol/mg protein
same,Fold accumulation,"human OAT4; 0.30 µM nominal, no inhibitor",1.58
same,"Max. transporter-specific fold accumulation, without inhibitor",human OAT4; 0.3 µM,1.58
same,Uptake via transporter (OAT4),human OAT4; absence and presence of benzbromarone,not taken up
same,"Max. transporter-specific fold accumulation, with inhibitor","human OAT4; Benzbromarone, 0.3 µM",0.81
same,Inhibitor assessment (MDR1),"MDR1; 0.30 and 3.00 µM, inhibition >20% defined as significant",no inhibitor
same,Relative inhibition,MDR1; test substance 0.30 µM nominal,8%
same,ATP dependent transport,MDR1; test substance 0.30 µM nominal,4902.67 ± 183.91 pmol/mg/min
same,Relative ATP dependent transport,MDR1; test substance 0.30 µM nominal,91.93 ± 3.56 % of control
same,Relative inhibition,MDR1; test substance 3.00 µM nominal,-5%
same,ATP dependent transport,MDR1; test substance 3.00 µM nominal,5625.67 ± 230.64 pmol/mg/min
same,Relative ATP dependent transport,MDR1; test substance 3.00 µM nominal,105.48 ± 4.44 % of control
